Data set [1] deals with trypsin, chymotrypsin and elastase. The experiment in a line: Metabolic stability in pancreatic enzyme mix (ESMS, selected ion monitoring). As to conditions: stability: decrease in SIM signal after 24 h in degradation solution, chymotrypsin and elastase in 100 mM ammoniumbicarbonate pH 8.0, 37°C.
Method: (§1) Compounds is dissolved at a concentration of 1 mg/ml in water. 25 ml of this solution is added to 175 ml of the respective enzyme-solution (resulting in an enzyme:substrate ratio (w/w) of approximately 1:5). The solution is left at 37°C overnight. 10 ml of the various degradation solutions is analyzed against a corresponding zero-sample using flow injection electrospray mass spectrometry (ESMS) with selected ion monitoring of the molecular ion. If the signal has decreased more than 20% compared to the zero-sample, the remainder of the solution is analyzed by HPLC and mass spectrometry in order to identify the extent and site(s) of degradation precisely.
(§2) Enzymes (trypsin, chymotrypsin, elastase aminopeptidase M and carboxypeptidase Y and B) were all purchased from Boehringer Mannheim GmbH (Mannheim, Germany)
Pancreatic enzyme mix: trypsin, chymotrypsin and elastase in 100 mM ammoniumbicarbonate pH 8.0 (all concentrations 0.025 mg/ml).
(§3) Mass spectrometric analysis was performed using two different mass spectrometers. […]
(§4) Quantification of the compounds (before and after degradation) was done on the API III instrument using single ion monitoring of the molecular ion in question with flow injection of the analyte. […]
The test system of another data set is carboxypeptidase Y and B. As to the kind of experiment: Metabolic stability in carboxypeptidase mix (ESMS, selected ion monitoring). Particulars: stability: decrease in SIM signal after 24 h in degradation solution; carboxypeptidase Y and B in 50 mM ammoniumacetate pH 4.5, 37°C.

Square brackets hold non-standard residues; d marks the D form. Peptide text beside a SMILES is read from it. d2Nal = N[C@H](Cc1ccc2ccccc2c1)C(=O)O

Method for carboxypeptidase Y and B: Compounds of formula I may be evaluated for their metabolic stability using the procedure described below:
as §1, §2
Carboxypeptidase mix: carboxypeptidase Y and B in 50 mM ammoniumacetate pH 4.5 (all concentrations 0.025 mg/ml).
as §3, §4

Regarding `C[C@H](NC(=O)[C@@H](Cc1c[nH]c2ccccc12)NC(=O)[C@@H](N)Cc1c[nH]cn1)C(=O)N[C@@H](Cc1c[nH]c2ccccc12)C(=O)N[C@H](Cc1ccccc1)C(=O)N[C@@H](CCCCN)C(N)=O` [GHRP-6] (H-H[dW]AW[dF]K-NH2), the Pan. enzyme mix entry in data set [1] is given as “- (Unstable (more than 20% decrease in SIM signal after 24 h in degradation solution))”. For the same compound, in the data set with carboxypeptidase Y and B, the Carboxy-peptidase mix entry is given as “- (Unstable (more than 20% decrease in SIM signal after 24 h in degradation solution))”.
Regarding `C[C@H](NC(=O)[C@@H](Cc1ccc2ccccc2c1)NC(=O)[C@@H](C)N)C(=O)N[C@@H](Cc1c[nH]c2ccccc12)C(=O)N[C@H](Cc1ccccc1)C(=O)N[C@@H](CCCCN)C(N)=O` [GHRP-2] (H-[dA][d2Nal]AW[dF]K-NH2), in data set [1], the Pan. enzyme mix result is given as “- (Unstable (more than 20% decrease in SIM signal after 24 h in degradation solution))”. Moreover, the Carboxy-peptidase mix result in the data set with carboxypeptidase Y and B is “- (Unstable (more than 20% decrease in SIM signal after 24 h in degradation solution))”.

Source of the values: patent EP1506969B1, “Compounds with growth hormone releasing properties” (Helsinn Therapeutics (U.S.), Inc., priority 1998, dated 2010).
